# Experiments:
# [1] = tested on: hot flashes following surgical or medical castration of prostate cancer patients; experiment: Randomized, multicenter, placebo-controlled Phase 2 trial of CPA 5, 15, 25 mg/day: hot flash efficacy; assay type: in vivo, human; details: for Reduction in average severity of moderate to severe hot flashes compared to placebo (positive) / Reduction in weekly average severity of hot flashes compared to placebo (Table 7 analysis, positive) / LS Mean Change in Weekly Average Severity of All Hot Flashes / LS Mean Change in Weekly Average Severity of Moderate to Severe Hot Flashes: 4-point scale; for Fewer weekly moderate to severe hot flashes compared to placebo (reduction, positive): baseline to end-of-treatment
# From the text: The inclusion criteria included male (>18 years) prostate cancer patients who have undergone bilateral orchiectomy or have used or are using LHRH analogue drug([…]®, Aberelix®), and have complained of bothersome hot flashes as defined by the occurrence of at least 3 moderate to severe hot flashes per day or 21 per week at baseline. Hot flashes were present for at least 1 month prior to study entry. […] A total of 121 clinical sites in the United States and Canada participated in this Phase 2 study with 77 sites enrolling at least one subject. The overall study duration for each subject was approximately 19 weeks, which included a screening period of up to 4 weeks, a one-week placebo run-in period, a 12-week double-blind period, and a follow-up telephone call two weeks after the last dose of study medication. After providing informed consent on the first day of the screening period, all subjects had medical and hot flash history recorded, a physical examination, a chest x-ray and Doppler to assess known thromboembolic risk factors, an ECG to evaluate cardiac risks, and clinical laboratory evaluations. Once all results of tests conducted during the screening period were obtained, subjects who met all of the inclusion criteria and none of the exclusion criteria were eligible to enter the one-week, single-blind, placebo run-in period. […] CPA 5, 15, or 25 mg/day or placebo. After beginning study medication, subjects returned for study visits at weeks 2, 4, 8, and 12. Two weeks after the final treatment visit, a telephone follow-up call was conducted to record and evaluate adverse events (“AE”s) since the last study visit. Each subject received one tablet daily, which was administered orally. All tablets were blinded and identical in appearance. The formulation used in this study was an immediate release product containing 5, 15, or 25 mg of CPA. The CPA tablets are described in Example 1. The dosage form for the CPA used in this study was an identical, blind, modified oval, scored, immediate release oral tablet for each strength, consisting of cyproterone acetate, lactose, microcrystalline cellulose, crospovidone, sodium lauryl sulfate, silicon dioxide, magnesium stearate, and stearic acid. Placebo tablets included the same constituents but without CPA and were identical in appearance to the active tablets. During the single-blind placebo run-in period, subjects received one medication bottle containing a one week+2 day supply (9 tablets total) of single-blind placebo tablets and a copy of the Subject Information Sheet. Subjects were instructed to take one tablet each morning by mouth, preferably with a meal, at approximately the same time each day. Subjects were not made aware that they were receiving placebo. Following randomization at Visit 2, all enrolled and eligible subjects were randomized equally to one of four treatment groups (CPA 5, 15, 25 mg, or placebo) and received the study medication on the same day. At treatment visits 0, 4, and 8 weeks following initiation, each subject received one medication bottle containing a one-month supply+7 (35 tablets total) of double-blind […] tablets and a copy of the Subject Information Sheet. Subjects were instructed to take one tablet each morning by mouth, preferably with a meal, at approximately the same time each day. This study was designed to evaluate three doses of CPA (5 mg, 15 mg, and 25 mg) for the treatment of hot flashes in prostate cancer patients. Observation of a reduction in the frequency and severity of hot flashes was considered a reasonable and reliable indicator of the efficacy of active treatment. The primary measure of efficacy was the change in weekly frequency and weekly average severity of moderate to severe hot flashes from the placebo run-in period to the final week of treatment. […]
# [2] = tested on: hot flashes in castrated prostatic cancer patients; experiment: Prior study of 50 mg and 100 mg CPA: hot flash efficacy; assay type: in vivo, human; details: N 236
# Method: The results of this study were compared with results from a prior study in which the efficacy of 50 mg and 100 mg of CPA was investigated. Efficacy data for the 50 mg and 100 mg studies showing a reduction in average daily number of moderate to severe hot flashes, and a reduction in average severity of hot flashes is shown in FIGS. 6 and 7, respectively. A comparison of the percent of patients with complete disappearance of all hot flashes at 12 weeks of treatment across studies is shown in Table 10.
# [3] = all three treatment groups (5, 15, 25 mg/day)
smiles,measurement,setting,value
"CC(=O)O[C@]1(C(C)=O)CC[C@H]2[C@@H]3C=C(Cl)C4=CC(=O)[C@@H]5C[C@@H]5[C@]4(C)[C@H]3CC[C@@]21C [CPA, cyproterone acetate]",% With Complete Disappearance of All Hot Flashes at 12 Weeks/End-of-Treatment,"[1]; CPA 5 mg, N 80",27.5%
same,Proportion of subjects with total elimination of moderate to severe hot flashes (Yes),[1]; CPA 5 mg/day,27.27%
same,Proportion of subjects without total elimination of moderate to severe hot flashes (No),[1]; CPA 5 mg/day,72.73%
same,Reduction in average frequency of all hot flashes compared to placebo (positive),[1]; CPA 5 mg/day,27.73 units
same,"Subjects without total elimination of moderate to severe hot flashes (No), number",[1]; CPA 5 mg/day,56
same,LS Mean Change in Total Weekly Moderate to Severe Hot Flash Frequency,"[1]; CPA 5 mg/day oral, Baseline (Day 0) to End-of-Treatment (Day 84)",−40.47
same,"Subjects with total elimination of moderate to severe hot flashes (Yes), number","[1]; CPA 5 mg/day, out of 77",21
same,Reduction in average severity of moderate to severe hot flashes compared to placebo (positive),[1]; CPA 5 mg/day,0.86 units
same,"Reduction in weekly average severity of hot flashes compared to placebo (Table 7 analysis, positive)",[1]; CPA 5 mg/day,0.60 units
same,Difference from placebo in change of Total Weekly Moderate to Severe Hot Flash Frequency,"[1]; CPA 5 mg/day, Day 0 to Day 84",−23.08
same,Difference from placebo in change of Weekly Average Frequency of All Hot Flashes,"[1]; CPA 5 mg/day, Day 0 to Day 84",−27.73
same,Difference from placebo in change of Weekly Average Severity of All Hot Flashes,"[1]; CPA 5 mg/day, Day 0 to Day 84",−0.6
same,Difference from placebo in change of Weekly Average Severity of Moderate to Severe Hot Flashes,"[1]; CPA 5 mg/day, Day 0 to Day 84",−0.86
same,LS Mean Change in Weekly Average Frequency of All Hot Flashes,"[1]; CPA 5 mg/day, Day 0 to Day 84",−50.67
same,LS Mean Change in Weekly Average Severity of All Hot Flashes,"[1]; CPA 5 mg/day, Day 0 to Day 84",−0.76
same,LS Mean Change in Weekly Average Severity of Moderate to Severe Hot Flashes,"[1]; CPA 5 mg/day, Day 0 to Day 84",−1.06
same,"Fewer weekly moderate to severe hot flashes compared to placebo (reduction, positive)",[1]; CPA 5 mg/day,23.08
same,% With Complete Disappearance of All Hot Flashes at 12 Weeks/End-of-Treatment,"[1]; CPA 15 mg, N 96",32.3%
same,Proportion of subjects with total elimination of moderate to severe hot flashes (Yes),[1]; CPA 15 mg/day,32.63%
same,Proportion of subjects without total elimination of moderate to severe hot flashes (No),[1]; CPA 15 mg/day,67.37%
same,Reduction in average frequency of all hot flashes compared to placebo (positive),[1]; CPA 15 mg/day,32.69 units
same,"Subjects without total elimination of moderate to severe hot flashes (No), number",[1]; CPA 15 mg/day,64
same,LS Mean Change in Total Weekly Moderate to Severe Hot Flash Frequency,"[1]; CPA 15 mg/day oral, Day 0 to Day 84",−45.05
same,"Subjects with total elimination of moderate to severe hot flashes (Yes), number","[1]; CPA 15 mg/day, out of 95",31
same,Reduction in average severity of moderate to severe hot flashes compared to placebo (positive),[1]; CPA 15 mg/day,1.13 units
same,"Reduction in weekly average severity of hot flashes compared to placebo (Table 7 analysis, positive)",[1]; CPA 15 mg/day,0.78 units
same,Difference from placebo in change of Total Weekly Moderate to Severe Hot Flash Frequency,"[1]; CPA 15 mg/day, Day 0 to Day 84",−27.66
same,Difference from placebo in change of Weekly Average Frequency of All Hot Flashes,"[1]; CPA 15 mg/day, Day 0 to Day 84",−32.69
same,Difference from placebo in change of Weekly Average Severity of All Hot Flashes,"[1]; CPA 15 mg/day, Day 0 to Day 84",−0.78
same,Difference from placebo in change of Weekly Average Severity of Moderate to Severe Hot Flashes,"[1]; CPA 15 mg/day, Day 0 to Day 84",−1.13
same,LS Mean Change in Weekly Average Frequency of All Hot Flashes,"[1]; CPA 15 mg/day, Day 0 to Day 84",−55.63
same,LS Mean Change in Weekly Average Severity of All Hot Flashes,"[1]; CPA 15 mg/day, Day 0 to Day 84",−0.94
same,LS Mean Change in Weekly Average Severity of Moderate to Severe Hot Flashes,"[1]; CPA 15 mg/day, Day 0 to Day 84",−1.33
same,"Fewer weekly moderate to severe hot flashes compared to placebo (reduction, positive)",[1]; CPA 15 mg/day,27.66
same,% With Complete Disappearance of All Hot Flashes at 12 Weeks/End-of-Treatment,"[1]; CPA 25 mg, N 86",36.1%
same,Proportion of subjects with total elimination of moderate to severe hot flashes (Yes),[1]; CPA 25 mg/day,36.05%
same,Proportion of subjects without total elimination of moderate to severe hot flashes (No),[1]; CPA 25 mg/day,63.95%
same,Reduction in average frequency of all hot flashes compared to placebo (positive),[1]; CPA 25 mg/day,33.93 units
same,"Subjects without total elimination of moderate to severe hot flashes (No), number",[1]; CPA 25 mg/day,55
same,LS Mean Change in Total Weekly Moderate to Severe Hot Flash Frequency,"[1]; CPA 25 mg/day oral, Day 0 to Day 84",−46.14
same,"Subjects with total elimination of moderate to severe hot flashes (Yes), number","[1]; CPA 25 mg/day, out of 86",31
same,Reduction in average severity of moderate to severe hot flashes compared to placebo (positive),[1]; CPA 25 mg/day,0.94 units
same,"Reduction in weekly average severity of hot flashes compared to placebo (Table 7 analysis, positive)",[1]; CPA 25 mg/day,0.77 units
same,Difference from placebo in change of Total Weekly Moderate to Severe Hot Flash Frequency,"[1]; CPA 25 mg/day, Day 0 to Day 84",−28.75
same,Difference from placebo in change of Weekly Average Frequency of All Hot Flashes,"[1]; CPA 25 mg/day, Day 0 to Day 84",−33.93
same,Difference from placebo in change of Weekly Average Severity of All Hot Flashes,"[1]; CPA 25 mg/day, Day 0 to Day 84",−0.77
same,Difference from placebo in change of Weekly Average Severity of Moderate to Severe Hot Flashes,"[1]; CPA 25 mg/day, Day 0 to Day 84",−0.94
same,LS Mean Change in Weekly Average Frequency of All Hot Flashes,"[1]; CPA 25 mg/day, Day 0 to Day 84",−56.87
same,LS Mean Change in Weekly Average Severity of All Hot Flashes,"[1]; CPA 25 mg/day, Day 0 to Day 84",−0.93
same,LS Mean Change in Weekly Average Severity of Moderate to Severe Hot Flashes,"[1]; CPA 25 mg/day, Day 0 to Day 84",−1.14
same,"Fewer weekly moderate to severe hot flashes compared to placebo (reduction, positive)",[1]; CPA 25 mg/day,28.75
same,"Treating all hot flashes, including mild, moderate, and severe","[1]; all three doses (5, 15, 25 mg/day)",effective
same,Total weekly frequency of moderate to severe hot flashes over placebo,[1]; [3],statistically significant reduction
same,Weekly average frequency of all hot flashes over placebo,[1]; [3],statistically significant reduction
same,Weekly average severity of all hot flashes over placebo,[1]; [3],statistically significant reduction
same,Weekly average severity of moderate to severe hot flashes over placebo,[1]; [3],statistically significant reduction
same,% With Complete Disappearance of All Hot Flashes at 12 Weeks/End-of-Treatment,[2]; CPA 50 mg,38.5%
same,% With Complete Disappearance of All Hot Flashes at 12 Weeks/End-of-Treatment,[2]; CPA 100 mg,46.0%

# From patent publication US8288342B2, “Methods for treating vasomotor symptoms in castrated prostatic cancer patients with low dose cyproterone acetate” (priority 2008, dated 2012)
